{"source": "patent US20260199483A1", "about": "(Bright Angel Therapeutics Inc., priority 2022, published 2026)", "key": {"CaCi2": {"test_system": "CaCi2", "assay": "Antifungal sensitivity testing (broth microdilution MIC)", "type": "cell-based", "details": "CaCi2, 96-well broth microdilution, compounds in DMSO", "procedure": "Minimum inhibitory concentrations (MICs) were determined in flat bottom, 96-well plate format using a modified broth microdilution protocol as previously described (Singh et al., PLoS Pathog. 5, e1000532 (2009); LaFayette et al., PLoS Pathog. 6, 79-80 (2010)). Compounds were formulated in dimethyl sulfoxide (DMSO, Sigma-Aldrich Co.). Each compound was tested in duplicate in at least two independent experiments."}, "[1]": {"assay": "Mammalian cell toxicity (Cell Titer-Glo)", "type": "cell-based", "details": "human; HepG2 cells, 48 h incubation, Cell Titer-Glo luminescence", "procedure": "HepG2 cells were seeded overnight at 500 cells/well in 384-well plate, then incubated with compounds (10-point concentration titration) for 48 h. Cell Titer-Glo® reagent ([…]) was added to each well and after 10-minute incubation at room temperature the luminescent signal was measured using an Envision plate reader (Perkin Elmer)."}, "[2]": {"target": "T1, purified recombinant Yck2 (Candida albicans, UniProt A0A1D8PKB4)", "T1 construct": "Yck2 residues 37-345 were PCR amplified from C. albicans genomic DNA; His6 (N); TEV protease site (N); made in house; host or cells: E. coli BL21(DE3)-Gold", "T1 sequence (A0A1D8PKB4 entry or part of it)": "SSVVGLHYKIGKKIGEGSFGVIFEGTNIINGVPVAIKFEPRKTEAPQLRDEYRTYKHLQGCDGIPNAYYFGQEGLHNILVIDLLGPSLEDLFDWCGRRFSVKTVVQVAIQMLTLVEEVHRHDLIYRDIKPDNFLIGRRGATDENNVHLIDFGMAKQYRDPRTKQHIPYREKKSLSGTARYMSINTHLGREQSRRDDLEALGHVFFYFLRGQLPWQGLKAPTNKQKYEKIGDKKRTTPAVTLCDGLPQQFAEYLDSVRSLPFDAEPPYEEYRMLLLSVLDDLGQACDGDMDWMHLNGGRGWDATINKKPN", "assay": "HotSpot kinase assay", "type": "biochemical, C. albicans", "procedure": "IC50s were determined using the in vitro HotSpot kinase assay (purified enzymes, ^33P-ATP, an appropriate substrate and 1 μM ATP). For enzyme inhibition assays, compounds were tested in range of ten concentrations from 10 uM to 0.0005 uM using purified recombinant Yck2. Reaction conditions were 1 uM ATP, one hour incubation with inhibitor, and kinase activity detected using 33-ATP phosphorylation of an appropriately selected peptide substrate.\nYck2 residues 37-345 were PCR amplified from C. albicans genomic DNA and subcloned into the vector pMCSG53, which codes for a N-terminal His6 tag, TEV protease site, followed by the Yck2 protein. E. coli BL21(DE3)-Gold competent cells were transformed with this plasmid and the Yck2 protein was purified using methodology previously described (Stogios et al., ACS Chem. Biol. 13, 1322-1332 (2018))."}}}
{"compound": "Fc1ccc(-c2nn3cc(CNC[C@H]4CO[C@@](Cn5cncn5)(c5ccc(F)cc5F)C4)ccc3c2-c2ccncc2)cc1", "note": "(stereo in doubt) [Compound I-257, 1-(cis-5-((1H-1,2,4-triazol-1-yl)methyl)-5-(2,4-difluorophenyl)tetrahydrofuran-3-yl)-N-((2-(4-fluorophenyl)-3-(pyridin-4-yl)pyrazolo[1,5-a]pyridin-6-yl)methyl)methanamine]", "values": [{"measurement": "MIC50", "setting": "CaCi2", "value": 0.295, "unit": "µM"}, {"measurement": "IC50 at 48 h", "setting": "[1]", "value": 5.57, "unit": "µM"}]}
{"compound": "Nc1nccc(-c2c(-c3ccc(F)cc3)ncn2C2CCN(CCCNCC(O)(Cn3cncn3)c3ccc(F)cc3F)CC2)n1", "note": "(stereo not shown) [Compound I-80, 1-((3-(4-(5-(2-aminopyrimidin-4-yl)-4-(4-fluorophenyl)-1H-imidazol-1-yl)piperidin-1-yl)propyl)amino)-2-(2,4-difluorophenyl)-3-(1H-1,2,4-triazol-1-yl)propan-2-ol]", "values": [{"measurement": "IC50", "setting": "[2]", "value": 3.33, "unit": "nM"}, {"measurement": "IC50 at 48 h", "setting": "[1]", "value": "> 20", "unit": "µM"}]}
{"compound": "O=C(NC1CCN(C[C@](O)(Cn2cncn2)c2ccc(F)cc2F)CC1)c1ccc2c(-c3ccncc3)c(-c3ccc(F)cc3)nn2c1", "note": "[Compound I-102, (S)-N-(1-(2-(2,4-difluorophenyl)-2-hydroxy-3-(1H-1,2,4-triazol-1-yl)propyl)piperidin-4-yl)-2-(4-fluorophenyl)-3-(pyridin-4-yl)pyrazolo[1,5-a]pyridine-6-carboxamide]", "values": [{"measurement": "IC50", "setting": "[2]", "value": 46.6, "unit": "nM"}, {"measurement": "MIC50", "setting": "CaCi2", "value": 3.12, "unit": "µM"}, {"measurement": "IC50 at 48 h", "setting": "[1]", "value": 2.24, "unit": "µM"}]}
{"compound": "O=C(NC1CCN(C[C@@](O)(Cn2cncn2)c2ccc(F)cc2F)CC1)c1ccc2c(-c3ccncc3)c(-c3ccc(F)cc3)nn2c1", "note": "[Compound I-103, (R)-N-(1-(2-(2,4-difluorophenyl)-2-hydroxy-3-(1H-1,2,4-triazol-1-yl)propyl)piperidin-4-yl)-2-(4-fluorophenyl)-3-(pyridin-4-yl)pyrazolo[1,5-a]pyridine-6-carboxamide]", "values": [{"measurement": "IC50", "setting": "[2]", "value": 49.5, "unit": "nM"}, {"measurement": "MIC50", "setting": "CaCi2", "value": 0.0488, "unit": "µM"}, {"measurement": "IC50 at 48 h", "setting": "[1]", "value": 6.38, "unit": "µM"}]}
{"compound": "O=C(NCC(O)(Cn1cncn1)c1ccc(F)cc1F)c1ccc2c(-c3ccncc3)c(-c3ccc(F)cc3)nn2c1", "note": "(stereo not shown) [Compound I-115, N-(2-(2,4-difluorophenyl)-2-hydroxy-3-(1H-1,2,4-triazol-1-yl)propyl)-2-(4-fluorophenyl)-3-(pyridin-4-yl)pyrazolo[1,5-a]pyridine-6-carboxamide]", "values": [{"measurement": "IC50", "setting": "[2]", "value": 3.67, "unit": "nM"}, {"measurement": "MIC50", "setting": "CaCi2", "value": 1.27, "unit": "µM"}, {"measurement": "IC50 at 48 h", "setting": "[1]", "value": "> 20", "unit": "µM"}]}
{"compound": "OC(CNCCOc1cccc2c(-c3ccncc3)c(-c3ccc(F)cc3)nn12)(Cn1cncn1)c1ccc(F)cc1F", "note": "(stereo not shown) [Compound I-153, 2-(2,4-difluorophenyl)-1-((2-((2-(4-fluorophenyl)-3-(pyridin-4-yl)pyrazolo[1,5-a]pyridin-7-yl)oxy)ethyl)amino)-3-(1H-1,2,4-triazol-1-yl)propan-2-ol]", "values": [{"measurement": "IC50", "setting": "[2]", "value": 48.7, "unit": "nM"}, {"measurement": "MIC50", "setting": "CaCi2", "value": 1.56, "unit": "µM"}, {"measurement": "IC50 at 48 h", "setting": "[1]", "value": "> 20", "unit": "µM"}]}
{"compound": "O=C(NC1CCN(CC(O)(Cn2cncn2)c2ccc(F)cc2F)CC1)c1cccc2c(-c3ccncc3)c(-c3ccc(F)cc3)nn12", "note": "(stereo not shown) [Compound I-155, N-(1-(2-(2,4-difluorophenyl)-2-hydroxy-3-(1H-1,2,4-triazol-1-yl)propyl)piperidin-4-yl)-2-(4-fluorophenyl)-3-(pyridin-4-yl)pyrazolo[1,5-a]pyridine-7-carboxamide]", "values": [{"measurement": "MIC50", "setting": "CaCi2", "value": 0.781, "unit": "µM"}, {"measurement": "IC50 at 48 h", "setting": "[1]", "value": 10.1, "unit": "µM"}]}
{"compound": "CC(C)(C)OC(=O)N1CCc2c(n(CCCN3CCC(n4cnc(-c5ccc(F)cc5)c4-c4ccnc(N)n4)CC3)c3ccc(Cl)cc23)C1", "note": "[Compound I-229, tert-butyl 9-(3-(4-(5-(2-aminopyrimidin-4-yl)-4-(4-fluorophenyl)-1H-imidazol-1-yl)piperidin-1-yl)propyl)-6-chloro-1,3,4,9-tetrahydro-2H-pyrido[3,4-b]indole-2-carboxylate]", "values": [{"measurement": "IC50", "setting": "[2]", "value": 16.4, "unit": "nM"}, {"measurement": "IC50 at 48 h", "setting": "[1]", "value": 5.59, "unit": "µM"}]}
{"compound": "Nc1nccc(-c2c(-c3ccc(F)cc3)ncn2C2CCN(CCCn3c4c(c5cccc(Cl)c53)CCNC4)CC2)n1", "note": "[Compound I-231, 4-(1-(1-(3-(8-chloro-1,2,3,4-tetrahydro-9H-pyrido[3,4-b]indol-9-yl)propyl)piperidin-4-yl)-4-(4-fluorophenyl)-1H-imidazol-5-yl)pyrimidin-2-amine]", "values": [{"measurement": "IC50", "setting": "[2]", "value": 4.13, "unit": "nM"}, {"measurement": "MIC50", "setting": "CaCi2", "value": "> 25", "unit": "µM"}, {"measurement": "IC50 at 48 h", "setting": "[1]", "value": 1.84, "unit": "µM"}]}
{"compound": "Cn1cc(-c2ccncc2COC(=O)C2CCN(CC(O)(Cn3cncn3)c3ccc(F)cc3F)CC2)c(-c2ccc(F)cc2)n1", "note": "(stereo not shown) [Compound I-239, (4-(3-(4-fluorophenyl)-1-methyl-1H-pyrazol-4-yl)pyridin-3-yl)methyl 1-(2-(2,4-difluorophenyl)-2-hydroxy-3-(1H-1,2,4-triazol-1-yl)propyl)piperidine-4-carboxylate]", "values": [{"measurement": "IC50", "setting": "[2]", "value": 185, "unit": "nM"}, {"measurement": "MIC50", "setting": "CaCi2", "value": 0.195, "unit": "µM"}, {"measurement": "IC50 at 48 h", "setting": "[1]", "value": "> 20", "unit": "µM"}]}
{"compound": "Cn1cc(-c2ccnc3c2C(=O)N(C2CCN(CC(O)(Cn4cncn4)c4ccc(F)cc4F)CC2)C3)c(-c2ccc(F)cc2)n1", "note": "(stereo not shown) [Compound I-242, 6-(1-(2-(2,4-difluorophenyl)-2-hydroxy-3-(1H-1,2,4-triazol-1-yl)propyl)piperidin-4-yl)-4-(3-(4-fluorophenyl)-1-methyl-1H-pyrazol-4-yl)-6,7-dihydro-5H-pyrrolo[3,4-b]pyridin-5-one]", "values": [{"measurement": "IC50", "setting": "[2]", "value": 15.3, "unit": "nM"}, {"measurement": "IC50 at 48 h", "setting": "[1]", "value": "> 20", "unit": "µM"}]}
{"compound": "Cn1cc(-c2ccnc3c2C(=O)N(CC2CCN(CC(=O)OC(Cn4cncn4)(Cn4cncn4)c4ccc(F)cc4F)CC2)C3)c(-c2ccc(F)cc2)n1", "note": "[Compound I-249, 2-(2,4-difluorophenyl)-1,3-di(1H-1,2,4-triazol-1-yl)propan-2-yl 2-(4-((4-(3-(4-fluorophenyl)-1-methyl-1H-pyrazol-4-yl)-5-oxo-5,7-dihydro-6H-pyrrolo[3,4-b]pyridin-6-yl)methyl)piperidin-1-yl)acetate]", "values": [{"measurement": "IC50 at 48 h", "setting": "[1]", "value": "> 50", "unit": "µM"}]}
{"compound": "Cn1cc(-c2ccnc3c2C(=O)N(CCC2CCN(CC(O)(Cn4ccnn4)c4ccc(F)cc4F)CC2)C3)c(-c2ccc(F)cc2)n1", "note": "(stereo not shown) [Compound I-250]", "values": [{"measurement": "IC50 at 48 h", "setting": "[1]", "value": "> 50", "unit": "µM"}]}
{"compound": "O=C(CC(O)(Cn1cncn1)c1ccc(F)cc1F)NCc1ccc2c(-c3ccncc3)c(-c3ccc(F)cc3)nn2c1", "note": "(stereo not shown) [Compound I-255, 3-(2,4-difluorophenyl)-N-((2-(4-fluorophenyl)-3-(pyridin-4-yl)pyrazolo[1,5-a]pyridin-6-yl)methyl)-3-hydroxy-4-(1H-1,2,4-triazol-1-yl)butanamide]", "values": [{"measurement": "MIC50", "setting": "CaCi2", "value": 1.56, "unit": "µM"}, {"measurement": "IC50 at 48 h", "setting": "[1]", "value": 22.5, "unit": "µM"}]}
{"compound": "C[C@@H](NCc1ccc2c(-c3ccncc3)c(-c3ccc(F)cc3)nn2c1)[C@](O)(Cn1cncn1)c1ccc(F)cc1F", "note": "[Compound I-266, (2R,3R)-2-(2,4-difluorophenyl)-3-(((2-(4-fluorophenyl)-3-(pyridin-4-yl)pyrazolo[1,5-a]pyridin-6-yl)methyl)amino)-1-(1H-1,2,4-triazol-1-yl)butan-2-ol]", "values": [{"measurement": "MIC50", "setting": "CaCi2", "value": 0.195, "unit": "µM"}, {"measurement": "IC50 at 48 h", "setting": "[1]", "value": 19.5, "unit": "µM"}]}
{"compound": "OC(Cn1cncn1)(c1ccc(F)cc1F)C(F)(F)c1ccc(C#Cc2ccc(CNCc3ccc4c(-c5ccncc5)c(-c5ccc(F)cc5)nn4c3)cc2)cn1", "note": "(stereo not shown) [Compound I-267, 2-(2,4-difluorophenyl)-1,1-difluoro-1-(5-((4-((((2-(4-fluorophenyl)-3-(pyridin-4-yl)pyrazolo[1,5-a]pyridin-6-yl)methyl)amino)methyl)phenyl)ethynyl)pyridin-2-yl)-3-(1H-1,2,4-triazol-1-yl)propan-2-ol]", "values": [{"measurement": "IC50 at 48 h", "setting": "[1]", "value": 8.03, "unit": "µM"}]}
{"compound": "OC(Cn1cncn1)(c1ccc(F)cc1F)C(F)(F)c1ccc(C#Cc2ccc(NCc3ccc4c(-c5ccncc5)c(-c5ccc(F)cc5)nn4c3)cc2)cn1", "note": "(stereo not shown) [Compound I-268]", "values": [{"measurement": "MIC50", "setting": "CaCi2", "value": 1.17, "unit": "µM"}, {"measurement": "IC50 at 48 h", "setting": "[1]", "value": "> 50", "unit": "µM"}]}
{"compound": "OC(Cn1cnnn1)(c1ccc(F)cc1F)C(F)(F)c1ccc(-c2ccc(CNCc3ccc4c(-c5ccncc5)c(-c5ccc(F)cc5)nn4c3)cc2)cn1", "note": "(stereo not shown) [Compound I-269, 2-(2,4-difluorophenyl)-1,1-difluoro-1-(5-(4-((((2-(4-fluorophenyl)-3-(pyridin-4-yl)pyrazolo[1,5-a]pyridin-6-yl)methyl)amino)methyl)phenyl)pyridin-2-yl)-3-(1H-tetrazol-1-yl)propan-2-ol]", "values": [{"measurement": "IC50 at 48 h", "setting": "[1]", "value": 3.67, "unit": "µM"}]}
{"compound": "OC(Cn1cncn1)(c1ccc(F)cc1F)C(F)(F)c1ccc(C#Cc2ccc(OCCNCc3ccc4c(-c5ccncc5)c(-c5ccc(F)cc5)nn4c3)cc2)cn1", "note": "(stereo not shown) [Compound I-270]", "values": [{"measurement": "MIC50", "setting": "CaCi2", "value": 0.586, "unit": "µM"}, {"measurement": "IC50 at 48 h", "setting": "[1]", "value": 1.54, "unit": "µM"}]}
